Assays:
Experiment in all cases: relative viability (nuclei count vs DMSO), 5 days (fraction); higher = more cells survive
AGI-6780 + Trametinib = compound: O=C(Nc1cccc(C(F)(F)F)c1)Nc1cc(S(=O)(=O)NC2CC2)ccc1-c1ccsc1 [AGI-6780] + CC(=O)Nc1cccc(-n2c(=O)n(C3CC3)c(=O)c3c(Nc4ccc(I)cc4F)n(C)c(=O)c(C)c32)c1 [Trametinib] (partner 0.02 µM)
In short: (§1)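 Each reported value is a median over duplicate plates. It expresses relative viability: treated-well nuclei count divided by vehicle-well nuclei count. Lung cancer cell lines in 1536-well plates were dosed by pin tool a day after seeding, alone with one drug or with a fixed anchor-drug dose plus five library-drug doses (not always all listed) in √10 steps, and nuclei were counted after 5 days.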

AGI-6780 + Navitoclax = compound: O=C(Nc1cccc(C(F)(F)F)c1)Nc1cc(S(=O)(=O)NC2CC2)ccc1-c1ccsc1 [AGI-6780] + CC1(C)CCC(c2ccc(Cl)cc2)=C(CN2CCN(c3ccc(C(=O)NS(=O)(=O)c4ccc(N[C@H](CCN5CCOCC5)CSc5ccccc5)c(S(=O)(=O)C(F)(F)F)c4)cc3)CC2)C1 [Navitoclax] (partner 0.5 µM)
In short: as §1

AGI-6780 + Phenformin = compound: O=C(Nc1cccc(C(F)(F)F)c1)Nc1cc(S(=O)(=O)NC2CC2)ccc1-c1ccsc1 [AGI-6780] + N=C(N)NC(=N)NCCc1ccccc1 [Phenformin] (partner 250 µM)
In short: as §1

AGI-6780 + Pemetrexed = compound: O=C(Nc1cccc(C(F)(F)F)c1)Nc1cc(S(=O)(=O)NC2CC2)ccc1-c1ccsc1 [AGI-6780] + Nc1nc2[nH]cc(CCc3ccc(C(=O)N[C@@H](CCC(=O)O)C(=O)O)cc3)c2c(=O)[nH]1 [Pemetrexed] (partner 0.2 µM)
In short: as §1

Cell Line	relative viability (AGI-6780 + Trametinib; first compound 0.08 µM)	relative viability (AGI-6780 + Trametinib; first compound 0.253 µM)	relative viability (AGI-6780 + Trametinib; first compound 0.8 µM)	relative viability (AGI-6780 + Trametinib; first compound 2.53 µM)	relative viability (AGI-6780 + Trametinib; first compound 8 µM)	relative viability (AGI-6780 + Navitoclax; first compound 0.08 µM)	relative viability (AGI-6780 + Navitoclax; first compound 0.253 µM)	relative viability (AGI-6780 + Navitoclax; first compound 0.8 µM)	relative viability (AGI-6780 + Navitoclax; first compound 2.53 µM)	relative viability (AGI-6780 + Navitoclax; first compound 8 µM)	relative viability (AGI-6780 + Phenformin; first compound 0.08 µM)	relative viability (AGI-6780 + Phenformin; first compound 0.253 µM)	relative viability (AGI-6780 + Phenformin; first compound 0.8 µM)	relative viability (AGI-6780 + Phenformin; first compound 2.53 µM)	relative viability (AGI-6780 + Phenformin; first compound 8 µM)	relative viability (AGI-6780 + Pemetrexed; first compound 0.08 µM)	relative viability (AGI-6780 + Pemetrexed; first compound 0.253 µM)	relative viability (AGI-6780 + Pemetrexed; first compound 0.8 µM)	relative viability (AGI-6780 + Pemetrexed; first compound 2.53 µM)	relative viability (AGI-6780 + Pemetrexed; first compound 8 µM)
201T	0.705	0.731	0.715	0.72	0.773	1.26	1.19	1.24	1.18	1.26	0.495	0.41	0.486	0.427	0.492	0.34	0.325	0.345	0.31	0.291
PC-3 [JPC-3]	–	0.582	0.701	0.744	0.626	0.898	0.872	0.77	0.752	0.774	0.51	0.483	0.479	0.502	0.496	–	1.08	1.26	1.19	0.987
CAL-12T	0.307	0.425	0.306	0.309	0.321	1.2	1.17	1.38	1.53	1.25	0.61	0.579	0.626	0.632	0.566	1.25	1.27	1.35	1.25	1.26
NCI-H1355	0.426	0.496	0.465	0.354	0.404	1.01	1.05	0.984	0.932	0.946	0.485	0.451	0.484	0.393	0.448	1.07	1.17	1.02	0.937	1
RERF-LC-KJ	0.859	0.862	0.828	0.674	0.774	1.18	1.08	1.16	0.834	0.911	0.421	0.455	0.439	0.367	0.411	0.497	0.466	0.469	0.497	0.466
Calu-6	–	–	–	–	–	0.948	0.815	0.846	0.833	0.891	–	–	–	–	–	–	–	–	–	–
NCI-H650	0.989	1.07	0.935	0.823	0.964	–	–	–	–	–	0.447	0.502	0.451	0.435	0.438	0.935	0.943	0.993	0.893	0.945
NCI-H1299	–	–	–	–	–	1.02	1.06	0.97	1.06	1.02	–	–	–	–	–	–	–	–	–	–
LCLC-103H	0.678	0.709	0.643	0.644	0.696	–	–	–	–	–	0.311	0.305	0.338	0.33	0.375	0.455	0.421	0.477	0.51	0.473
NCI-H1703	–	–	–	–	–	1.49	1.21	1.25	1.1	1.25	–	–	–	–	–	–	–	–	–	–
ABC-1	–	–	–	–	–	–	–	–	–	–	0.218	0.263	0.238	0.263	0.197	–	–	–	–	–
NCI-H358	0.139	0.174	0.132	0.112	0.136	–	–	–	–	–	0.363	0.317	0.438	0.35	0.394	0.145	0.182	0.148	0.173	0.166
IA-LM	–	–	–	–	–	0.761	0.768	0.908	0.787	0.959	–	–	–	–	–	–	–	–	–	–

— the supplement of paper PMC10307832
